Legend:
[1] = system: gastric acid secretion induced by pentagastrin; assay: Antisecretive activity in anaesthetised rats (pentagastrin-stimulated gastric acid secretion); assay type: in vivo
Description: Antisecretive activity in anaesthetised rats
Antisecretive activity in rats was determined with the use of male animals each weighing about 200 g, anaesthetised with urethane. Gastric secretion was stimulated with pentagastrin. The method of K. S. Lai (Gut 5, (1964), 327-341) was used, slightly modified.
After tracheotomy, cannulae were inserted in the oesophagus and the duodenum. A tepid solution. (37° C.) of 0.25 mM NaOH was perfused and passed through the stomach by means of a peristaltic pump at a constant flow rate of 1 ml/minute. After stabilisation for 20 minutes, the stimulating agent, dissolved in a physiological solution, was perfused for 120 minutes at a dose of 30 mcg/Kg/h in a volume of 0.95 ml/hour. After perfusion for 60 minutes (the basal stimulation), the product under test was administered as an intravenous bolus (I.V.) and the perfusion of the stimulant continued for a further 60 minutes. Acid secretion was recorded continuously as a function of time.
(§1) The activity of the product was evaluated as the percentage reduction in the secreted acidity after the administration of the product compared with the base acidity measured during the first 60 minutes of collection during which only the pentagastrin was present.
Different doses of the antagonist compounds tested were administered so that an ID50, that is, the dose (in mg/Kg I.V.) capable of inhibiting the effect of pentagastrin by 50%, could be calculated.
The results thus obtained are illustrated in the following table (Table 1) in which the activities of the compounds are expressed as the ID50s under the stimulus of 30 mcg/Kg/h of pentagastrin.

[2] = Acute intravenous toxicity in rats (LD50); details: rat, in vivo
From the text: The activity of these compounds against gastric secretion is linked specifically to their antigastrin activity.

[3] = system: gastric acid secretion induced by pentagastrin; assay: Antisecretive activity in conscious dogs carrying gastric fistulae; assay type: in vivo, dogs (beagles); details: for ED50: Canis lupus familiaris, iv, read-out: ID50 (the source's name)
Description: Antisecretive activity in conscious dogs
Male beagles weighing about 10 Kg were used and carried gastric fistulae at the level of the greater curvature, connected near the antral region, steel cannulae 5 cm long and 2 cm wide being inserted for collecting the gastric juices externally. After a period of about one month to recover from the operation, and after suitable conditioning, the animals were treated with pentagastrin at a dose of 3 mcg/Kg/h. The Stimulant, dissolved in a physiological solution, was perfused into the femoral vein for 180 minutes at a rate of 1.9 ml/h. After perfusion for 60 minutes (the basal stimulation) the product under test, dissolved in a physiological solution (1 ml/Kg), was administered in a bolus into the contra-lateral vein and, at the same time, the perfusion of the stimulant continued for a further 120 minutes. The acid secretion was recorded continuously as a function of time.
as §1, with “present, for each of the periods 0-60 and 60-120 minutes after the product had been administered in a bolus.” for “present.”
Different doses of the compounds (C-1 and C-5) tested were administered so that an ID50, that is the dose (in mg/Kg I.V.) capable of inhibiting the effect of the pentagastrin by 50% could be calculated.
The results obtained are given in the following table (Tab. 2) in which the % variations from the base (the mean ± standard deviations calculated on the values obtained from 4 animals) are given for the various doses administered under the stimulus of 3 mcg/Kg/h of pentagastrin, as well as the activities of the compounds, calculated as their ID50s, and the correlation coefficients of the regression lines calculated on the basis of the experimental data.

[4] = system: mouse colic adenocarcinoma; assay: Colic tumorous growth induced by pentagastrin in mice; assay type: in vivo; details: 21 days
From the text: (§2) Inhibitory effect on the rate of growth of tumorous colic cells induced by pentagastrin
(§3) Gastrin has a trophic effect on the digestive epithelium.
(§4) Upon the basis of this premise, it was wished to investigate whether the gastrin-specific antagonists of the invention could antagonise the growth of experimentally-induced gastrointestinal tumours.
(§5) Male mice weighing 20-25 g were inoculated subcutaneously in the interscapular region with a suspension of 8×10^4 tumour cells of a mouse colic adenocarcinoma.
(§6) After 21 days, the animals were killed and the fundic mucosa and the tumours were removed, weighed and extracted to determine the DNA.

fundic mucosa = assay: Fundic mucosa hyperplasia induced by pentagastrin in mice; assay type: in vivo; details: 21 days
From the text: as §2, §3, §4, §5, §6

[5] = pentagastrin + C-5 3 mg/Kg i.p. twice a day
[6] = pentagastrin + C-5 10 mg/Kg i.p. twice a day

O=C(O)CC[C@@H](NC(=O)c1cc(Cl)cc(Cl)c1)C(=O)N1CCC2(CCCC2)CC1 [Compound C5]
ED50 ([1]; Rattus norvegicus, iv, anaesthetised male rats, pentagastrin 30 mcg/Kg/h, I.V. bolus, IN with bound, read-out: Antagonistic activity (ID50) towards gastric acid secretion induced by pentagastrin): 15 mg/kg
Antigastrin activity (in words) ([1]; anaesthetised rats, pentagastrin 30 mcg/Kg/h): particularly favourable
Activity as peripheral pentagastrin inhibitor relative to compound C-30 ([1]; rats, vs C-30): slightly more active
LD50 [2]: ~400 mg/kg
selectivity ratio [2]: ~25
Variation % (Mean ± SD) from base (0-60 min) ([3]; 5 mg/Kg I.V., period 60-120 min): -36.0 ± 16.3%
Variation % (Mean ± SD) from base (0-60 min) ([3]; 5 mg/Kg I.V., period 120-180 min): -20.5 ± 13.1%
Variation % (Mean ± SD) from base (0-60 min) ([3]; 10 mg/Kg I.V., period 60-120 min): -59.5 ± 5.0%
Variation % (Mean ± SD) from base (0-60 min) ([3]; 10 mg/Kg I.V., period 120-180 min): -31.9 ± 1.3%
Variation % (Mean ± SD) from base (0-60 min) ([3]; 30 mg/Kg I.V., period 60-120 min): -67.8 ± 4.8%
Variation % (Mean ± SD) from base (0-60 min) ([3]; 30 mg/Kg I.V., period 120-180 min): -48.1 ± 1.7%
ED50 ([3]; 1 h, conscious dogs, I.V. bolus, period 60-120 min (first hour after administration)): 8.9 mg/kg
ED50 ([3]; 2 h, conscious dogs, I.V. bolus, period 120-180 min (second hour after administration)): 32.5 mg/kg
ID50 ([3]; conscious dogs, I.V. bolus, period 60-120 min (first hour after administration), 60 min): ~10 mg/kg
Inhibition of gastric acid secretion induced by pentagastrin in dogs (in words) ([3]; conscious dogs, first hour after bolus): potent inhibitors of gastric acid secretion induced by pentagastrin in dogs
Effect on colic tumour weight and DNA content (in words) ([4]; mice): can inhibit both the aforementioned trophic effects of pentagastrin in a significant and dose-dependent manner
Tumorous DNA, Mean [4, 5]: 3.24 ± 0.42 mg
Weight of the colic tumor, Mean ± SD [4, 5]: 601.5 ± 91.7 mg
Tumorous DNA, Mean [4, 6]: 2.94 ± 0.31 mg
Weight of the colic tumor, Mean ± SD [4, 6]: 554 ± 61.7 mg
Effect on the fundic mucosa (in words) (fundic mucosa; mice): can inhibit both the aforementioned trophic effects of pentagastrin in a significant and dose-dependent manner
Fundic DNA, Mean ± SD (fundic mucosa; [5]): 0.268 ± 0.03 mg
Weight of the mucosa fundica, Mean ± SD (fundic mucosa; [5]): 23.85 ± 3.48 mg
Fundic DNA, Mean ± SD (fundic mucosa; [6]): 0.252 ± 0.03 mg
Weight of the mucosa fundica, Mean ± SD (fundic mucosa; [6]): 18.90 ± 2.54 mg

Reference: patent US5500430A, “Amidic derivatives of glutamic, aspartic and 2-amino adipic acids, a process for preparing same, and anti-gastrin composition containing the derivatives” (Rotta Research Laboratorium S.p.A., priority 1990, dated 1996)
